According to patent US10851083B2, “Benzoimidazoles as prolyl hydroxylase inhibitors” (Janssen Pharmaceutica NV, priority 2008, dated 2020):

Columns and labels:
[1] = molecular target: human PHD2181-417 (Homo sapiens (Human), UniProt Q9GZT9); assay: PHD2 enzyme activity assay ([14C]-succinic acid production); format: biochemical; details: PHD2181-417 polypeptide, HIF-1α peptide 10 μM, [5-14C]-2-oxoglutaric acid; 30 min pre-incubation; tested 10 μM to 3 nM;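 further: reaction ran 10 min with compound in Tris pH 7.5 buffer with catalase, DTT and ascorbate, labelled succinate freed of leftover 2-oxoglutarate by DNP precipitation, then beta counted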
[2] = test system: Hep-3B cells; assay: Cellular assay: EPO secretion in Hep-3B cells; format: cell-based, human; design: EPO secretion, % of control compound: dose or concentration left out as unconfirmed; details: Homo sapiens, Hep3B, 24 h, EPO secretion as percentage of control compound 7-[(4-Chloro-phenyl)-(5-methyl-isoxazol-3-ylamino)-methyl]-quinolin-8-ol, read-out: Cellular % EPO Stimulation

Chain of human PHD2181-417 (Q9GZT9 181-417): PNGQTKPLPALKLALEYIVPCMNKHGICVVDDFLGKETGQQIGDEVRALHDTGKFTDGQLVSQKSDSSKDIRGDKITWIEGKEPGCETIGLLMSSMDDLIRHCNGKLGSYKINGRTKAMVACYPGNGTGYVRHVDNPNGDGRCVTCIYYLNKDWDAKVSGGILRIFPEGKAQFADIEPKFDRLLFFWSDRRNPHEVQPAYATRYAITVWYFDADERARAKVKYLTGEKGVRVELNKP

| SMILES | Enzyme pIC50 [1] | EPO secretion, % of control compound [2] |
| --- | --- | --- |
| O=C(O)c1cnn(-c2nc3c(F)cccc3[nH]2)c1 [Example 110, 1-(4-Fluoro-1H-benzoimidazol-2-yl)-1H-pyrazole-4-carboxylic Acid] | 6.2 | 45.9% |
| O=C(O)c1cnn(-c2nc3c(Br)cc(C(F)(F)F)cc3[nH]2)c1 [Example 35, 1-(4-Bromo-6-trifluoromethyl-1H-benzoimidazol-2-yl)-1H-pyrazole-4-carboxylic Acid] | 6.8 | 29.7% |
| CS(=O)(=O)c1ccc2nc(-n3cc(C(=O)O)cn3)[nH]c2c1 [Example 38, 1-(6-Methanesulfonyl-1H-benzoimidazol-2-yl)-1H-pyrazole-4-carboxylic Acid] | 7.1 | 40.9% |
| O=C(O)c1cnn(-c2nc3cc(S(=O)(=O)Cc4ccc(F)cc4)c(Cl)cc3[nH]2)c1 [Example 92, 1-[6-Chloro-5-(4-fluoro-phenylmethanesulfonyl)-1H-benzoimidazol-2-yl]-1H-pyrazole-4-carboxylic Acid] | 7.5 | 61.2% |
| O=C(O)c1cnn(-c2nc3cc(Cl)c(Cl)cc3[nH]2)c1 [Example 2, 1-(5,6-Dichloro-1H-benzoimidazol-2-yl)-1H-pyrazole-4-carboxylic Acid] | 6.9 | 152% |
| O=C(O)c1cnn(-c2nc3cc(OC(F)(F)F)c(Cl)cc3[nH]2)c1 [Example 113, 1-(6-Chloro-5-trifluoromethoxy-1H-benzoimidazol-2-yl)-1H-pyrazole-4-carboxylic Acid] | 6.98 | 109% |
| O=C(O)c1cnn(-c2nc3c(F)c(F)c(F)cc3[nH]2)c1 [Example 31, 1-(4,5,6-Trifluoro-1H-benzoimidazol-2-yl)-1H-pyrazole-4-carboxylic Acid] | 7 | 18.2% |
| CSc1cc2[nH]c(-n3cc(C(=O)O)cn3)nc2cc1OC(F)(F)F [Example 79, 1-(6-Methylsulfanyl-5-trifluoromethoxy-1H-benzoimidazol-2-yl)-1H-pyrazole-4-carboxylic Acid] | 7.1 | 83.8% |
| O=C(O)c1cnn(-c2nc3cc(F)ccc3[nH]2)c1 [Example 42, 1-(5-Fluoro-1H-benzoimidazol-2-yl)-1H-pyrazole-4-carboxylic Acid] | 6.3 | 33.8% |
| O=C(O)c1cnn(-c2nc3cc(F)c(F)cc3[nH]2)c1 [Example 36, 1-(5,6-Difluoro-1H-benzoimidazol-2-yl)-1H-pyrazole-4-carboxylic Acid] | 6.6 | 79.4% |
| O=C(O)c1cnn(-c2nc3c(F)cc(F)cc3[nH]2)c1 [Example 112, 1-(4,6-Difluoro-1H-benzoimidazol-2-yl)-1H-pyrazole-4-carboxylic Acid] | 6.8 | 32% |
| O=C(O)c1cnn(-c2nc3cc(Oc4ccc(Cl)cc4)c(OC(F)(F)F)cc3[nH]2)c1 [Example 52, 1-[5-(4-Chloro-phenoxy)-6-trifluoromethoxy-1H-benzoimidazol-2-yl]-1H-pyrazole-4-carboxylic Acid] | 7.4 | 21.6% |
| COc1cc2[nH]c(-n3cc(C(=O)O)cn3)nc2cc1Cl [Example 46, 1-(6-Chloro-5-methoxy-1H-benzoimidazol-2-yl)-1H-pyrazole-4-carboxylic Acid] | 6.5 | 76% |
| CCS(=O)(=O)c1cc2[nH]c(-n3cc(C(=O)O)cn3)nc2cc1Cl [Example 96, 1-(5-Chloro-6-ethanesulfonyl-1H-benzoimidazol-2-yl)-1H-pyrazole-4-carboxylic Acid] | 7.4 | 67% |
| CCCSc1cc2[nH]c(-n3cc(C(=O)O)cn3)nc2cc1Cl [Example 78, 1-(5-Chloro-6-propylsulfanyl-1H-benzoimidazol-2-yl)-1H-pyrazole-4-carboxylic Acid] | 7 | 125% |
| CSc1cc2[nH]c(-n3cc(C(=O)O)cn3)nc2cc1F [Example 74, 1-(5-Fluoro-6-methylsulfanyl-1H-benzoimidazol-2-yl)-1H-pyrazole-4-carboxylic Acid] | 6.9 | 77.8% |
| O=C(O)c1cnn(-c2nc3cc(F)c(Br)cc3[nH]2)c1 [Example 109, 1-(6-Bromo-5-fluoro-1H-benzoimidazol-2-yl)-1H-pyrazole-4-carboxylic Acid] | 6.7 | 99% |
| O=C(O)c1cnn(-c2nc3cc(SCc4ccccc4Cl)c(Cl)cc3[nH]2)c1 [Example 69, 1-[6-Chloro-5-(2-chloro-benzylsulfanyl)-1H-benzoimidazol-2-yl]-1H-pyrazole-4-carboxylic Acid] | 6.8 | 85.3% |
| O=C(O)c1cnn(-c2nc3cc(Oc4ccc(Cl)cc4)c(Cl)cc3[nH]2)c1 [Example 51, 1-[6-Chloro-5-(4-chloro-phenoxy)-1H-benzoimidazol-2-yl]-1H-pyrazole-4-carboxylic Acid] | 7.4 | 150% |
| O=C(O)c1cnn(-c2nc3cc4ccccc4cc3[nH]2)c1 [Example 114, 1-(1H-Naphtho[2,3-d]imidazol-2-yl)-1H-pyrazole-4-carboxylic Acid] | 6.3 | 144% |
| O=C(O)c1cnn(-c2nc3cc(S(=O)(=O)Cc4ccccc4)c(Cl)cc3[nH]2)c1 [Example 89, 1-(6-Chloro-5-phenylmethanesulfonyl-1H-benzoimidazol-2-yl)-1H-pyrazole-4-carboxylic Acid] | 7.5 | 28.4% |

Further lines, with some results ahead:

| Enzyme pIC50 [1] | SMILES | EPO secretion, % of control compound [2] |
| --- | --- | --- |
| 7.6 | COc1ccc(S(=O)(=O)c2cc3nc(-n4cc(C(=O)O)cn4)[nH]c3cc2C(F)(F)F)cc1 [Example 162, 1-[5-(4-Methoxy-benzenesulfonyl)-6-trifluoromethyl-1H-benzoimidazol-2-yl]-1H-pyrazole-4-carboxylic Acid] | 45.8% |
| 7.6 | CCS(=O)(=O)c1cc2nc(-n3cc(C(=O)O)cn3)[nH]c2cc1C(F)(F)F [Example 154, 1-(5-Ethylsulfonyl-6-trifluoromethyl-1H-benzoimidazol-2-yl)-1H-pyrazole-4-carboxylic Acid] | 53.8% |
| 5.8 | Cc1c(F)ccc2[nH]c(-n3cc(C(=O)O)cn3)nc12 [Example 116, 1-(5-Fluoro-4-methyl-1H-benzoimidazol-2-yl)-1H-pyrazole-4-carboxylic Acid] | 18.3% |
| 6.8 | CS(=O)(=O)Nc1cc2nc(-n3cc(C(=O)O)cn3)[nH]c2cc1Cl [Example 136, 1-(6-Chloro-5-methanesulfonylamino-1H-benzoimidazol-2-yl)-1H-pyrazole-4-carboxylic Acid] | 9% |
| 6.5 | O=C(O)c1cnn(-c2nc3cc(SCc4ccc(Cl)cc4)c(Cl)cc3[nH]2)c1 [Example 163, 1-[6-Chloro-5-(4-chloro-benzylsulfanyl)-1H-benzoimidazol-2-yl]-1H-pyrazole-4-carboxylic Acid] | 37% |
| 7.3 | O=C(O)c1cnn(-c2nc3cc(SCc4c(Cl)cccc4Cl)c(Cl)cc3[nH]2)c1 [Example 168, 1-[6-Chloro-5-(2,6-dichloro-benzylsulfanyl)-1H-benzoimidazol-2-yl]-1H-pyrazole-4-carboxylic Acid] | 50.1% |
| 7.1 | O=C(O)c1cnn(-c2nc3c(Br)c(Cl)c(Cl)cc3[nH]2)c1 [Example 128, 1-(4-Bromo-5,6-dichloro-1H-benzoimidazol-2-yl)-1H-pyrazole-4-carboxylic Acid] | 24.1% |
| 7.6 | O=C(O)c1cnn(-c2nc3cc(S(=O)(=O)Cc4cccc(Cl)c4)c(Cl)cc3[nH]2)c1 [Example 174, 1-[6-Chloro-5-(3-chloro-phenylmethanesulfonyl)-1H-benzoimidazol-2-yl]-1H-pyrazole-4-carboxylic Acid] | 40.9% |
| 6.3 | CC(=O)Nc1cc2nc(-n3cc(C(=O)O)cn3)[nH]c2cc1Cl [Example 139, 1-(5-Acetylamino-6-chloro-1H-benzoimidazol-2-yl)-1H-pyrazole-4-carboxylic Acid] | 24% |
| 7.2 | CCSc1cc2nc(-n3cc(C(=O)O)cn3)[nH]c2cc1OC(F)(F)F [Example 150, 1-(5-Ethylsulfanyl-6-trifluoromethoxy-1H-benzoimidazol-2-yl)-1H-pyrazole-4-carboxylic Acid] | 47.2% |
| 6.5 | CCCNc1cc2nc(-n3cc(C(=O)O)cn3)[nH]c2cc1Cl [Example 131, 1-(6-Chloro-5-propylamino-1H-benzoimidazol-2-yl)-1H-pyrazole-4-carboxylic Acid] | 89% |
| 7.4 | O=C(O)c1cnn(-c2nc3cc(Sc4ccccc4)c(C(F)(F)F)cc3[nH]2)c1 [Example 159, 1-(5-Phenylsulfanyl-6-trifluoromethyl-1H-benzoimidazol-2-yl)-1H-pyrazole-4-carboxylic Acid] | 11% |
| 7.7 | O=C(O)c1cnn(-c2nc3cc(S(=O)(=O)CC4CCCCC4)c(Cl)cc3[nH]2)c1 [Example 175, 1-(6-Chloro-5-cyclohexylmethanesulfonyl-1H-benzoimidazol-2-yl)-1H-pyrazole-4-carboxylic Acid] | 48.7% |
